For assay [1], the system named is cancer cell lines classified IM, MSL, M. Kind of assay: PRISM screen compound sensitivity correlated with IM, MSL and M subtype of cell lines (101 gene signature). The class given is cell-based. The settings on record: for IM Corr test: correlation of PRISM compound sensitivity with IM subtype correlation; for M Corr test: correlation of PRISM compound sensitivity with M subtype correlation; for MSL Corr test: correlation of PRISM compound sensitivity with MSL subtype correlation.

The subject of assay [2] is cancer cell lines, DetermaIO classes. Kind of assay: Association of PRISM compound sensitivity with DetermaIO (DTIO) cell line classes. The class given is cell-based.
The mark [3] stands for this setting: subtype (IM, MSL or M) with which compound sensitivity is negatively correlated, training cell set (371 cell lines), 101 gene signature.
Setting [4] is: correlation of PRISM compound sensitivity with DTIO, test cell set.
Where [5] appears, read: correlation of PRISM compound sensitivity with DTIO, training cell set.
Setting [6] is: correlation of PRISM compound sensitivity with DTIO (DetermaIO), test cell set (188 cell lines).
The mark [7] stands for this setting: correlation of PRISM compound sensitivity with DTIO (DetermaIO), training cell set (371 cell lines).

For the molecule `CCCCCCCC/C=C\CCCCCCCC(=O)NCCc1ccc(O)c(O)c1` [OLDA], in assay [1] (test cell set (188 cell lines)), the “IM Corr test” value came to 0.0783, the “M Corr test” value was −0.1742 and the “MSL Corr test” value was −0.06733. The TNBCType train entry in assay [1] (subtype (IM, MSL or M) the PRISM compound sensitivity is associated with, training cell set (371 cell lines), 101 gene signature) was “MSL”. Besides, in assay [2] (correlation of PRISM compound sensitivity with DTIO, test cell set (188 cell lines)), the “DTIO Corr test” value came out at 0.08614. The “DTIO Corr train” value in assay [2] (correlation of PRISM compound sensitivity with DTIO, training cell set (371 cell lines)) stood at 0.09584.
In the case of `COc1cc(C[C@@H]2NCCc3cc(O)c(O)cc32)cc(OC)c1OC` [trimethoquinol], in assay [1] (test cell set (188 cell lines)), the “IM Corr test” value is −0.06802, the “M Corr test” value was −0.00108 and the “MSL Corr test” value is reported as −0.05303. For the same molecule, the TNBCType train entry in assay [1] (setting [3]) is given as “MSL”. The “DTIO Corr test” value in assay [2] (setting [4]) is listed as −0.05537. Moreover, in assay [2] (setting [5]), the “DTIO Corr train” value is given as −0.0983.
With `COc1cc2c(NC3CCN(C(C)C)CC3)nc(C3CCCCC3)nc2cc1OCCCN1CCCC1` [UNC0638], in assay [1] (test cell set (188 cell lines)), the “IM Corr test” value is listed as −0.1264, the “M Corr test” value amounted to 0.1332 and the “MSL Corr test” value amounted to 0.1697. In addition, the “DTIO Corr test” value in assay [2] (setting [6]) is −0.08839. In assay [2] (setting [7]), the “DTIO Corr train” value is given as −0.07586.
Take `C[C@]12N[C@H](Cc3ccccc31)c1ccccc12` [dizocilpine-(−)]: in assay [1] (test cell set), the “IM Corr test” value is given as −0.0703, the “M Corr test” value was −0.00928 and the “MSL Corr test” value was −0.09183. Besides, the TNBCType train entry in assay [1] (subtype (IM, MSL or M) with which PRISM compound sensitivity is negatively correlated, training cell set, 101 gene signature) is “MSL”. In assay [2] (setting [4]), the “DTIO Corr test” value is −0.06945. In addition, in assay [2] (setting [5]), the “DTIO Corr train” value stood at 0.02729.
Regarding `O=C(O)Cc1cccnc1C(=O)O` [homoquinolinic-acid], in assay [1] (test cell set), the “IM Corr test” value is listed as −0.08778, the “M Corr test” value was found to be 0.05663 and the “MSL Corr test” value is given as 0.003236. Besides, the “DTIO Corr test” value in assay [2] (setting [4]) is listed as −0.0252. The “DTIO Corr train” value in assay [2] (setting [5]) was −0.1121.
For `Cc1ccc([N+](=O)[O-])cc1S(=O)(=O)N(C)/N=C/c1cnc2ccc(Br)cn12` [PIK-75] the same measures were −0.1541, 0.127, 0.07706, −0.1696 and −0.1178.
As to `O=S(=O)(O)c1ccc(O)cc1` [4-phenolsulfonic-acid], in assay [1] (test cell set), the “IM Corr test” value is listed as −0.06223, the “M Corr test” value is on record as 0.02717 and the “MSL Corr test” value was found to be 0.006866. Also, the “DTIO Corr test” value in assay [2] (setting [4]) is −0.03477. Moreover, the “DTIO Corr train” value in assay [2] (setting [5]) is −0.1569.
Consider `Cc1ccccc1-n1c(Cn2ncc3c(N)ncnc32)nc2cccc(C)c2c1=O` [PIK-293], for which, in assay [1] (test cell set), the “IM Corr test” value was −0.06338, the “M Corr test” value was 0.066 and the “MSL Corr test” value came to 0.00947. The “DTIO Corr test” value in assay [2] (setting [4]) is reported as 0.02467. The “DTIO Corr train” value in assay [2] (setting [5]) is listed as −0.1397.
`C[C@@H]1COC(Nc2ccc3ncnc(Nc4ccc(OCc5nccs5)c(Cl)c4)c3c2)=N1` [ARRY-334543]: in assay [1] (test cell set), the “IM Corr test” value is on record as −0.1679, the “M Corr test” value amounted to 0.2632 and the “MSL Corr test” value amounted to 0.3622. In addition, the “DTIO Corr test” value in assay [2] (setting [4]) is recorded as −0.03109. Also, the “DTIO Corr train” value in assay [2] (setting [5]) is listed as −0.05992. For the same molecule, the “DTIO Corr test” value in assay [2] (correlation of compound sensitivity with DetermaIO (DTIO), test set) is −0.03109. Also, the “DTIO Corr train” value in assay [2] (correlation of compound sensitivity with DetermaIO (DTIO), training set) is −0.05992.
Turning to `O=C(NCc1cccc(O)c1)Nc1nc(-c2ccncc2)cs1` [K19333160], the TNBCType test result in assay [1] (classification of association of compound sensitivity with IM, MSL and M cell line classes, test data set) is “MSL”. Further, the TNBCType train result in assay [1] (classification of association of compound sensitivity with IM, MSL and M cell line classes, training data set) is listed as “MSL”. In assay [2] (association of compound sensitivity with DetermaIO classes, test data set), the “DTIO Corr test” value is 0.08122. In addition, the “DTIO Corr train” value in assay [2] (association of compound sensitivity with DetermaIO classes, training data set) worked out at 0.04633.
On to `COc1ccc(S(=O)(=O)N2CCCN(S(=O)(=O)c3ccc(OC)c(OC)c3)CC2)cc1OC` [SB-756050], for which, in assay [1] (test cell set), the “IM Corr test” value is −0.03347, the “M Corr test” value is listed as −0.03952 and the “MSL Corr test” value is on record as 0.01577. For the same molecule, in assay [2] (setting [4]), the “DTIO Corr test” value is recorded as −0.06711. Moreover, the “DTIO Corr train” value in assay [2] (setting [5]) is −0.07957.
Turning to `CN1C(=O)C(N2CCCCC2)S/C1=C\C(=O)O` (stereo not shown) [ozolinone], in assay [1] (test cell set (188 cell lines)), the “IM Corr test” value is recorded as −0.1322, the “M Corr test” value is reported as −0.01029 and the “MSL Corr test” value was −0.06039. Further, in assay [1] (setting [3]), the TNBCType train result is “MSL”. Also, in assay [2] (setting [4]), the “DTIO Corr test” value is on record as −0.09683. Further, the “DTIO Corr train” value in assay [2] (setting [5]) amounted to 0.04306.
For the molecule `CCCCCOc1c(OC)ccc2cc(C(=O)NCc3ccc4c(c3)OCO4)c(=O)[nH]c12` [JTE-907], in assay [1] (test cell set (188 cell lines)), the “IM Corr test” value is listed as −0.05167, the “M Corr test” value is 0.08725 and the “MSL Corr test” value was −0.01924. Besides, the “DTIO Corr test” value in assay [2] (setting [6]) is on record as −0.04389. In addition, the “DTIO Corr train” value in assay [2] (setting [7]) was −0.131.
Turning to `CCCC[C@H](NC(C)=O)C(=O)N[C@H]1CC(=O)NCCCC[C@@H](C(=O)O)NC(=O)[C@H](Cc2c[nH]c3ccccc23)NC(=O)[C@H](CCCN=C(N)N)NC(=O)[C@@H](Cc2ccccc2)NC(=O)[C@H](Cc2cnc[nH]2)NC1=O` [bremelanotide], in assay [1] (test cell set (188 cell lines)), the “IM Corr test” value is reported as −0.04735, the “M Corr test” value was 0.07264 and the “MSL Corr test” value is −0.04913. Besides, in assay [2] (setting [4]), the “DTIO Corr test” value is −0.06366. Moreover, in assay [2] (setting [5]), the “DTIO Corr train” value was −0.07952.
As for `[O-][n+]1cccc(CO)c1` [mepiroxol], in assay [1] (test cell set (188 cell lines)), the “IM Corr test” value is reported as −0.07855, the “M Corr test” value is 0.0253 and the “MSL Corr test” value turned out to be 0.01789. Further, in assay [2] (setting [6]), the “DTIO Corr test” value is recorded as −0.08258. Besides, the “DTIO Corr train” value in assay [2] (setting [7]) is listed as −0.1082.
Taken in the same sequence, the figures for `C[C@H](C(=O)O)c1ccc(-c2ccccc2)c(F)c1` [flurbiprofen-(S)-(+)] were −0.0194, 0.01889, 0.02942, −0.0319 and −0.04195.
Taken in the same sequence, the figures for `C[C@H](C[C@H](N)C(=O)O)C(=O)O` [SYM-2081] were −0.08842, 0.01603, 0.05746, −0.1311 and −0.0674.
For `OCCn1cc(-c2cnc3nnn(Cc4ccc5ncccc5c4)c3n2)cn1` [PF-04217903], in assay [1] (test cell set (188 cell lines)), the “IM Corr test” value is listed as −0.04418, the “M Corr test” value stood at 0.07402 and the “MSL Corr test” value stood at 0.07771. Besides, in assay [2] (setting [6]), the “DTIO Corr test” value is −0.00139. Further, in assay [2] (setting [7]), the “DTIO Corr train” value is given as −0.1163.
On to `O=C(c1ccc(Cl)o1)N1CC2CNCC2C1` (stereo not shown) [AZD 1446], for which, in assay [1] (test cell set (188 cell lines)), the “IM Corr test” value was −0.01023, the “M Corr test” value is recorded as −0.00226 and the “MSL Corr test” value is −0.09838. Also, the TNBCType train entry in assay [1] (setting [3]) is reported as “MSL”. In assay [2] (setting [4]), the “DTIO Corr test” value was −0.00648. Further, the “DTIO Corr train” value in assay [2] (setting [5]) is given as −0.01778.
Consider `CNC(C)CCC=C(C)C.CNC(C)CCC=C(C)C.O=C(O)[C@@H](O)[C@H](O)[C@H](O)[C@@H](O)C(=O)O` [isometheptene-mucate], for which, in assay [1] (test cell set (188 cell lines)), the “IM Corr test” value is −0.09289, the “M Corr test” value is recorded as 0.05313 and the “MSL Corr test” value came out at 0.118. In assay [2] (setting [4]), the “DTIO Corr test” value is −0.04443. Also, in assay [2] (setting [5]), the “DTIO Corr train” value is on record as −0.1179.
For the molecule `Clc1ccc(C2(c3ccc(-c4cn[nH]c4)cc3)CCNCC2)cc1` [AT7867], in assay [1] (test cell set (188 cell lines)), the “IM Corr test” value was determined as 0.04603, the “M Corr test” value was −0.1665 and the “MSL Corr test” value is reported as −0.1142. Also, the TNBCType train entry in assay [1] (setting [3]) was “MSL”. In addition, in assay [2] (setting [4]), the “DTIO Corr test” value stood at 0.003574. Further, the “DTIO Corr train” value in assay [2] (setting [5]) amounted to 0.04812.
